For assay [1], the system named is Akt phosphorylation (Akt-Pser473). Nature of the assay: Akt phosphorylation immunoblot in RKO cells treated with CAPE. It is filed as cell-based. The protocol:
RKO cells were treated with low serum (LS) (0.1%) for 12 h, or low serum for 12 h followed by replacement of media with 10% serum (LS+S), in the absence (EtOH) or presence of CAPE. Two different exposures (light, dark) of the immunoblot using the anti-phosphoAkt specific antibody are shown.
(§1) 35(9): p. 790; Giri, D. and M. Ittmann, Hum Pathol, 1999. 30(4): p. 419-24; Davies, M. A., et al., Cancer Res, 1999. 59(11): p. 2551-6). Since PTEN is mutated in PC-3 cells, Akt phosphorylation levels are elevated compared to normal prostatic cells, and therefore PC-3 cells are a good model to study the regulation of Akt by CAPE and propolis.
Since Akt phosphorylation levels reflect a balance between active phosphorylation (mainly by PI-3 kinase) and dephosphorylation (by a yet unidentified phosphatase), the decrease in Akt phosphorylation could be an activation of a phosphatase rather than inhibition of a kinase. […] Thus, we performed CAPE treatments in the presence of high (10%) and low (0.1%) serum levels.

For assay [2] the test system is unchanged. Nature of the assay: Akt phosphorylation immunoblot in PC-3 cells treated with CAPE. It is filed as cell-based.
Text: as §1
For orientation: In western blotting, separated proteins are transferred to a membrane and probed.

For the next assay, the system named is RKO cells. Nature of the assay: Clonogenic survival assay with CAPE and ionizing radiation, RKO cells. In kind it is cell-based. The protocol:
(§2) FIGS. 2A-B are graphs illustrating that CAPE sensitizes colorectal carcinoma cells RKO (A) and HT-29 cells (B) to treatments with IR. RKO (A) and HT-29 (B) cells were treated with CAPE (5 μg/ml) for the indicated times, irradiated and plated for clonogenic survival assays. CAPE treatment alone induced 10-20% reduction in clonogenic survival. Results are normalized to account for this reduction. We have also tested the ability of CAPE to sensitize cells to the cytotoxic effects of ionizing radiation. […] The Dose-enhancement ratio (DER) values at survival fraction (SF) 0.1 for pretreatment with CAPE for 24 h were 1.81 for RKO cells and a 1.68 for HT-29 cells. The radiosensitizing effect of CAPE was even more pronounced in vivo.

Another assay relates to HT-29 cells. Kind of assay: Clonogenic survival assay with CAPE and ionizing radiation, HT-29 cells. It is filed as cell-based. As for the experimental part:
as §2

The subject of the next assay is HT-29 xenograft tumors. Nature of the assay: HT-29 tumor xenografts on the flanks of nude mice, CAPE with or without IR. It is filed as in vivo. As for the experimental part: FIG. 3 is a photograph showing representative animals where CAPE radiosensitizes HT-29 xenograft tumors to IR. HT-29 cells were grown as tumor xenografts on the flanks of nude mice. When the tumors reached approximately 80 mm^3, one group of mice was treated with 0.5 ml of ethanol (EtOH) (0.1%) while the other group was treated with a single injection of CAPE (100 μg/kg). Twenty-four hours later, the tumors on the left flanks were given a single dose of IR (5 Gy). The animals were returned to their cages and tumor measurements were taken every 7 days for the following 4 weeks. The animal on the left was treated with ethanol (EtOH) (the carrier for CAPE), while the animal on the right was treated with 50 mg/kg CAPE. The tumors on the left side of the animal (right side of the picture) was treated with ionizing radiation (IR) (5Gy). Pictures were taken 4 weeks following IR. FIG. 4 is graphical representation of results from all tumors. Control (N=7), CAPE (N=5), IR (N=6) and CAPE +IR (N=4). Error bars represent ±S.E.M. The different number of tumors measured reflects the failure of some of the tumors to grow during the first week prior to treatment. FIG. 5 is a bar graph illustrating the number of days required for a tumor to triple in volume. […] FIG. 4 illustrates that tumors treated with both CAPE and IR were reduced in size by approximately 90% 4 weeks after treatment.

For assay [3], the system named is colorectal carcinoma cells. Nature of the assay: Survival fraction of colorectal carcinoma cells, oxaliplatin versus CAPE and oxaliplatin. The following applies: regimen of CAPE and oxaliplatin compared to oxaliplatin alone (FIG. 6). It is filed as cell-based. The source says:
FIG. 6 is a graph depicting the survival fraction of colorectal carcinoma cells when the cells are given a regimen of oxaliplatin as compared to a regimen of CAPE and oxaliplatin. As stated above, CAPE may be combined with other cancer therapies. One such therapy includes the use of oxaliplatin. Oxaliplatin is a chemotherapy drug, and also an antineoplastic agent, that is generally used in late-stage clinical development for colorectal cancer. Oxaliplatin is a platinum chemotherapy drug, similar to cisplatin and carboplatin. At the center of the drug molecule is an atom of platinum. Oxaliplatin is generally a clear liquid that is given through a drip into a vein (intravenous infusion). The infusion usually takes about 2 hours. Oxaliplatin can be given every 2 weeks or every 3 weeks as a course of treatment.

The mark [4] stands for this setting: immunoblot with anti-Akt antibody (FIG. 1A).
The mark [5] stands for this setting: increasing doses of CAPE, immunoblot (FIG. 1A).
Setting [6] is: pretreatment with CAPE for 24 h (5 μg/ml), then IR.

For the compound `O=C(/C=C/c1ccc(O)c(O)c1)OCCc1ccccc1` [CAPE, caffeic acid phenethyl ester], the “levels of Akt (anti-Akt antibody)” value in assay [1] (setting [4]) and in assay [2] (setting [4]) was “remain unchanged” each time. In addition, the “levels of Akt phosphorylation (Akt-Pser473)” value in assay [1] (setting [5]) and in assay [2] (setting [5]) was “reduces the levels of Akt phosphorylation” throughout. In addition, the “rephosphorylation of Akt when serum was added back” value in assay [1] (low serum 12 h then 10% serum, in presence of CAPE (FIG. 1B)) is listed as “did not inhibit rephosphorylation of Akt”. Moreover, the “Akt phosphorylation with CAPE in low serum” value in assay [1] (low serum (0.1%) for 12 h plus CAPE (FIG. 1B)) is given as “undetectable levels”. The “reduction in clonogenic survival by CAPE treatment alone” value in the assay with RKO cells (CAPE 5 μg/ml, no IR) is listed as 10-20%; in the assay on HT-29 cells (CAPE 5 μg/ml, no IR), 10-20%. Further, the “sensitization to IR treatments” value with RKO cells (pretreatment with CAPE for 12 h or 24 h (FIG. 2A)) and with HT-29 cells (pretreatment with CAPE for 12 h or 24 h (FIG. 2B)) was “significant sensitization” each time. Also, the “Dose-enhancement ratio (DER) at survival fraction (SF) 0.1” value with RKO cells (setting [6]) amounted to 1.81; in the assay on HT-29 cells (setting [6]) it was 1.68. Further, the “number of days required for tumor to triple in volume, CAPE plus IR” value in the assay on HT-29 xenograft tumors (CAPE combined with IR (FIG. 5)) is given as “failed to triple in volume”. Moreover, the “effect on tumor growth, CAPE alone” value with HT-29 xenograft tumors (single dose (50 mg/kg) CAPE, no IR, HT-29 xenografts in nude mice) is given as “minimal effect on tumor growth”. In the assay with HT-29 xenograft tumors (single injection of CAPE, IR 5 Gy 24 h later, 4 weeks after treatment (FIG. 4)), the “reduction in tumor size, CAPE and IR” value is “approximately 90%”. Besides, the “survival fraction of cancerous cells, CAPE plus oxaliplatin” value in assay [3] is given as “decrease in the survival fraction”.

The values are drawn from patent publication US6689811B2, “Method of using caffeic acid phenethyl ester and analogs thereof as radiation sensitizers” (Wake Forest University, priority 2001, dated 2004).
